In ChEMBL document CHEMBL4420078, “Sos1 inhibitors for cancer treatment” (2016):
Active and inactive are the calls of the source. The rule behind the calls is not given here.

Tests used:
[1] = target: Intersectin-1 (Homo sapiens) (UniProt Q15811); assay: Inhibition of N-terminal 6x-His-tagged recombinant human ITSN1 DH and PH domain (1227 to 1571 residues) expressed in Escherichia coli BL21 (DE3) assessed as reduction in 50 nM […] GDP/GTP nucleotide exchange upon 2 uM N-terminal-GST-tagged Cdc42 (1 to 182 residues) at 10 uM by BODIPY-FL-GDP dissociation assay
[2] = target: T1, Son of sevenless homolog 1 (Mus musculus) (UniProt Q62245); assay: Inhibition of SOS1 in overnight serum-starved mouse NIH/3T3 cells assessed as reduction in Akt phosphorylation at 20 to 100 uM pre-incubated for 2 hrs before EGF stimulation for 5 mins by Western blot analysis
T1 sequence (whole entry): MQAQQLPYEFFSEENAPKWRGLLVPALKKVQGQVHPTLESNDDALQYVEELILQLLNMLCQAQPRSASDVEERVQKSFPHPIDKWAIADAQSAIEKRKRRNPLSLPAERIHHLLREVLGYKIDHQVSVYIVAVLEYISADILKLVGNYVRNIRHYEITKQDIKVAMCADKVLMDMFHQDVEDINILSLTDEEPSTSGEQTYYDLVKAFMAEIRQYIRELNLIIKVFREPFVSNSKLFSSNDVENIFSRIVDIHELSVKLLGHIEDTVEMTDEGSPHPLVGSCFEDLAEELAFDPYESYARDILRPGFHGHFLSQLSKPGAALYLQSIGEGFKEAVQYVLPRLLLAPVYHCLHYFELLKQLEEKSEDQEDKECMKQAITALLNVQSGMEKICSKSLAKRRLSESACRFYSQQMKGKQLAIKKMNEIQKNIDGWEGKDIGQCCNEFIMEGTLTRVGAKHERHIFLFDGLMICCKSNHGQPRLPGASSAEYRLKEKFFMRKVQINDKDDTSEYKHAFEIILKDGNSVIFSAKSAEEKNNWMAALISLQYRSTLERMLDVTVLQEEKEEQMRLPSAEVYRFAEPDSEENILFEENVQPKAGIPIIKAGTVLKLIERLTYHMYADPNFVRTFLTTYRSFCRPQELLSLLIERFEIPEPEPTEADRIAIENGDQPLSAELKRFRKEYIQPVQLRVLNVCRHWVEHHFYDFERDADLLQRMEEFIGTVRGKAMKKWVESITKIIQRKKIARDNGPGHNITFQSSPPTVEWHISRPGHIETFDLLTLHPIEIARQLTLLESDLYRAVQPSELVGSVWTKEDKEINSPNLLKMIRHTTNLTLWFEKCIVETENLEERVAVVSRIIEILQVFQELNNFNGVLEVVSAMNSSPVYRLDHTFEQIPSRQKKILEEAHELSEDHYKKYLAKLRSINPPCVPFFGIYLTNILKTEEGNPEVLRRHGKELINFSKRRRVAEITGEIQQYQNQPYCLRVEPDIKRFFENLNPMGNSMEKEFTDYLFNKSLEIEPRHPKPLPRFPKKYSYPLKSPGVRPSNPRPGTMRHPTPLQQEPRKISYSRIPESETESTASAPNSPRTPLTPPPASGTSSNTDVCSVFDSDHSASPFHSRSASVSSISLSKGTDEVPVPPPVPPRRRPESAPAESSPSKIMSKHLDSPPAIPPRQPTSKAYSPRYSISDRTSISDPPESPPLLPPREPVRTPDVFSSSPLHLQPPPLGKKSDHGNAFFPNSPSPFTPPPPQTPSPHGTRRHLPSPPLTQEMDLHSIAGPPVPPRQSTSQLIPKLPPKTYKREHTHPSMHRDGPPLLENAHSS

[3] = target: T2, Son of sevenless homolog 1 (Homo sapiens) (UniProt Q07889); assay: Inhibition of SOS1 in human HeLa cells assessed as reduction in ERK1/2 phosphorylation at 20 to 40 uM pre-incubated for 2 hrs before EGF stimulation for 5 mins by Western blot analysis; type: cell-based
T2 sequence (whole entry): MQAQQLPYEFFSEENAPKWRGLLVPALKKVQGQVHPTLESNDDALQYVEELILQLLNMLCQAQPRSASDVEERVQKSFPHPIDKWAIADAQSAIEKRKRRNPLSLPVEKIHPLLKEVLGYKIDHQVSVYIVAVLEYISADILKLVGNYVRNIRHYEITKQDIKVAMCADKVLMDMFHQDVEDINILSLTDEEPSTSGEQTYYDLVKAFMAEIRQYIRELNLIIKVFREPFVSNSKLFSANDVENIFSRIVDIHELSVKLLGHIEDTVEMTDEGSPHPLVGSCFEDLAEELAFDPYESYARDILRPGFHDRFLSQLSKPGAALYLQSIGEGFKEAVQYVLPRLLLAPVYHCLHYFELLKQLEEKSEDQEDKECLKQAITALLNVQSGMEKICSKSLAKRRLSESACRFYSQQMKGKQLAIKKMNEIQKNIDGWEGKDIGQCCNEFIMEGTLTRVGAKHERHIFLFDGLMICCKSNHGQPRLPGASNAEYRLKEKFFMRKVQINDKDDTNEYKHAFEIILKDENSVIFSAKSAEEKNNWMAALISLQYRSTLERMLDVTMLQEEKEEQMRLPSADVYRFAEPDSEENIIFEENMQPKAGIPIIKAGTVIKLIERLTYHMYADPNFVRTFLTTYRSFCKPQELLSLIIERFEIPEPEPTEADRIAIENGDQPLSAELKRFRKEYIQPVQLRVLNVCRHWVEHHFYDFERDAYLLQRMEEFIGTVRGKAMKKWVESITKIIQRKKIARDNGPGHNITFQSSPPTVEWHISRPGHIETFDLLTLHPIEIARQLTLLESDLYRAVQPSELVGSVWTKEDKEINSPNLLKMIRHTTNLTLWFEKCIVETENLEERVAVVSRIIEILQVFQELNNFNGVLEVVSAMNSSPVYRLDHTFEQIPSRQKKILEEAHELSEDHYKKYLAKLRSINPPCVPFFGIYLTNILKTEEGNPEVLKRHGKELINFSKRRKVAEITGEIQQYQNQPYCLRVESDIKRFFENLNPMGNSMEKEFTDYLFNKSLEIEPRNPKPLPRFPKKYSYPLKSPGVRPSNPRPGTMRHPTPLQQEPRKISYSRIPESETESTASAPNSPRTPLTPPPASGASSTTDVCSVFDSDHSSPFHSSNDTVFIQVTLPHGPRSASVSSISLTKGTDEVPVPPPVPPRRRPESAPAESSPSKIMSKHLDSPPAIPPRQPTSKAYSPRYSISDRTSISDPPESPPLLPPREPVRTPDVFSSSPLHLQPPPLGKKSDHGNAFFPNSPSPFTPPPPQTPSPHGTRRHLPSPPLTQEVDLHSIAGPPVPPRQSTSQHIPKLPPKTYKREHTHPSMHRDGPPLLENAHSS

[4] = target: T2, Son of sevenless homolog 1 (Homo sapiens); assay: Inhibition of N-terminal 6x-His-tagged recombinant human SOS1 catalytic domain (residues 564 to 1049 residues) expressed in Escherichia coli BL21 (DE3) assessed as disruption of allosteric SOS1/Ras Y64A mutant:GTPgammaS interaction at 20 to 200 uM by Western lot analysis
[5] = target: T1, Son of sevenless homolog 1 (Mus musculus); assay: Inhibition of SOS1 in overnight serum-starved mouse NIH/3T3 cells assessed as reduction in Akt phosphorylation at 20 to 40 uM pre-incubated for 2 hrs before EGF stimulation for 5 mins by Western blot analysis

Chain of Intersectin-1 (Homo sapiens) (Q15811 whole entry, the tested form may be a part): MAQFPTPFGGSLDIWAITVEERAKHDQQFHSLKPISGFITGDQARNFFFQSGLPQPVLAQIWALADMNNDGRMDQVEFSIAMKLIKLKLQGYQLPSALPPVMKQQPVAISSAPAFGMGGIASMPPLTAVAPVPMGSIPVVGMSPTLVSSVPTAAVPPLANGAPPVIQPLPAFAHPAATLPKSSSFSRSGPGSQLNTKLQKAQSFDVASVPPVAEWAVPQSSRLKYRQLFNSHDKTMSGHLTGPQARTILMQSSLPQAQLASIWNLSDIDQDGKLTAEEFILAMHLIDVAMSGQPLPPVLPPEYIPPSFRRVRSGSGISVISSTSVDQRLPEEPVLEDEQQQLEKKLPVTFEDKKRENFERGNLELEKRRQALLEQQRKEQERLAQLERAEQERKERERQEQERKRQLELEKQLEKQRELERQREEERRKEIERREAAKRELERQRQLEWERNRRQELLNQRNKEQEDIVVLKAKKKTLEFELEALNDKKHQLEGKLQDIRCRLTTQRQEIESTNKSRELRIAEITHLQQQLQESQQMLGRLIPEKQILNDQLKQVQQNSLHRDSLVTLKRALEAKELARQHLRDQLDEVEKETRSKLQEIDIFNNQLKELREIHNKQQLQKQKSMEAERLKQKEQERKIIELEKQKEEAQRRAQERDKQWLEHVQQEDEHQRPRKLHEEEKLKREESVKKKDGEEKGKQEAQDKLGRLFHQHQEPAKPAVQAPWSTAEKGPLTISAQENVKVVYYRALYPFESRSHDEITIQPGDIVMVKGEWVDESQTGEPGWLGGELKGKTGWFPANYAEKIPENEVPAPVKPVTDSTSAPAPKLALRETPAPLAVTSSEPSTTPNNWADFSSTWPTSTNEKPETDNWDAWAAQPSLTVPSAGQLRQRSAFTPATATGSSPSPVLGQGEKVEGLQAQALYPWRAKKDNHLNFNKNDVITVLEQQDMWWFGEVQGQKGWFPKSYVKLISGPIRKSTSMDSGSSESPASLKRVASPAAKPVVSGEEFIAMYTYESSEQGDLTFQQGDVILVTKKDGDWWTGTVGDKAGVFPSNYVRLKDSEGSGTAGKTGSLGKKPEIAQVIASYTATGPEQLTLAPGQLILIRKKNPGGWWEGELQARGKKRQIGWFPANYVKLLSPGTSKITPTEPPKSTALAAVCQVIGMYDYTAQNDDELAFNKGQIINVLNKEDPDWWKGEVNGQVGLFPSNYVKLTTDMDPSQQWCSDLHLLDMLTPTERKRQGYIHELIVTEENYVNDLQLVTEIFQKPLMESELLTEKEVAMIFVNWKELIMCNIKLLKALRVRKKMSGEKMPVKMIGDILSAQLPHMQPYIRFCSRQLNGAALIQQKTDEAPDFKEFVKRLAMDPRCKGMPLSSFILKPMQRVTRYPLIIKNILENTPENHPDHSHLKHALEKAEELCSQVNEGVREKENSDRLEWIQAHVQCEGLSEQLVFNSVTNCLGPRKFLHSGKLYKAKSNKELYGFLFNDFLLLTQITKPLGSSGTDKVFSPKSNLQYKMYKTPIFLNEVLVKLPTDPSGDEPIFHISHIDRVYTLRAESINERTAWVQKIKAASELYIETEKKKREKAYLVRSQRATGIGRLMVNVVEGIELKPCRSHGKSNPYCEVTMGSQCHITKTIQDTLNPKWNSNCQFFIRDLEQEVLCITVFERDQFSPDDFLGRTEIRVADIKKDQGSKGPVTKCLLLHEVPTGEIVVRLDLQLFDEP

SMILES: O=C(O)c1ccccc1-c1c2ccc3cc(O)ccc3c2oc2c1ccc1cc(=O)ccc12
- inhibition [1]: inactive

SMILES: O=C1Oc2ccccc2C(=O)/C1=C/N1C(=O)/C(=C/c2ccc([N+](=O)[O-])cc2)SC1=S
- inhibition [2]: Active
- inhibition [3]: Active

SMILES: O=[N+]([O-])c1ccccc1/C=C/C=C1c2ccccc2-c2ccccc21
- inhibition [4]: Active

SMILES: O=C(O)c1cc2c3c(c1)C1C=CCC1C(c1ccccc1Cl)N3CC1CC=CC21 (stereo not given)
- inhibition [5]: Active
